Experiments:
Type in all cases: in vitro ADME
[1] = tested on: waxy cuticles of whole wheat leaves; assay: Franz cell leaf penetration of epoxiconazole (Example 7); conditions: 24 h, 50 ppm
Experimental: (§1) This ratio may be expressed based on:
Several donor solutions were prepared to assess penetration of an azole fungicide, namely epoxiconazole, across waxy cuticles of whole wheat leaves. Epoxiconazole TGAI was provided in each donor solution at a rate of 50 ppm. Epoxiconazole is available from MilliporeSigma, St. Louis, MO, USA, and Shanghai Terppon Chemical Co., Ltd., Shanghai, China as a technical grade active ingredient. Certain donor solutions comprised 500 ppm 3-Nonenoic acid.
(§2) The permeation period was 24 hours. […] The powderized leaf was mixed with acetone as a solvent.

[2] = tested on: waxy cuticles of whole wheat leaves; assay: Franz cell leaf penetration of pyraclostrobin, Headline SC (Example 8); conditions: penetration ratio of pyraclostrobin (236 ppm, Headline SC), 5-Hexenoic acid 1,000 ppm and adjuvant 1,000 ppm where included, 24 hours
Experimental: as §1
(§3) Several donor solutions were prepared to assess penetration of a strobilurin fungicide active ingredient, namely pyraclostrobin, across waxy cuticles of whole wheat leaves. Each donor solution comprised Headline® SC, a commercially available fungicide from BASF Corporation comprising pyraclostrobin. Such donor solutions comprised 236 ppm pyraclostrobin. Certain donor solutions included an aliphatic acid, namely 5-Hexenoic acid. Such donor solutions comprised 1,000 ppm 5-Hexenoic acid. […] In this example, the adjuvants tested were non-ionic surfactants comprising C11 linear alcohol ethoxylates (available from Stepan Company of Northfield, IL as Biosoft® N1-5, Biosoft® N1-7, and Biosoft® N1-9).
as §2

[3] = tested on: waxy cuticles of whole wheat leaves; assay: Franz cell leaf penetration of pyraclostrobin, Headline EC (Example 6); conditions: penetration ratio of pyraclostrobin (236 ppm, Headline EC), 5-Hexenoic acid 1,000 ppm and adjuvant 1,000 ppm where included, 24 hours
Experimental: as §1
as §3, with “comprised Headline® EC, a commercially” for “comprised Headline® SC, a commercially”, “ppm pyraclostrobin. Pyraclostrobin is also commercially available in end-user product form from BASF Corporation as Headline® SC fungicide. Certain donor” for “ppm pyraclostrobin. Certain donor”, “solutions included 1,000 ppm” for “solutions included an aliphatic acid, namely 5-Hexenoic acid. Such donor solutions comprised 1,000 ppm”
as §2

[4] = tested on: waxy cuticles of whole wheat leaves; assay: Franz cell leaf penetration of 3-Octenoic acid (Example 3); conditions: penetration ratio of 3-Octenoic acid (500 ppm), epoxiconazole TGAI 50 ppm and adjuvant 1,000 ppm where included, 24 hours
Experimental: as §1
(§4) Several donor solutions were prepared to assess penetration of 3-Octenoic acid across waxy cuticles of whole wheat leaves. Each donor solution comprised 500 ppm 3-Octenoic acid. Certain donor solutions included an azole fungicide, namely epoxiconazole technical grade active ingredient (TGAI) fungicide, each at a rate of 50 ppm. Epoxiconazole is commercially available from MilliporeSigma, St. Louis, MO, USA, as a technical grade active ingredient. […] In this example, the adjuvants tested were non-ionic surfactants comprising C11 linear alcohol ethoxylates (available from Stepan Company of Northfield, IL as Biosoft® N1-5 and Biosoft®) N1-7).
as §2

[5] = tested on: waxy cuticles of whole soybean leaves; assay: Franz cell leaf penetration of trans-2-Hexenoic acid, Mero (Example 15); conditions: penetration ratio of trans-2-Hexenoic acid (1,500 ppm), azoxystrobin 343.5 ppm (Quadris) and Mero 31.3 ppm where included, 24 hours
Experimental: as §1
Each donor solution comprised 1,500 ppm trans-2-Hexenoic acid. Certain donor solutions included a strobilurin fungicide, namely azoxystrobin. Such donor solutions comprised Quadris®, a commercially available fungicide from Syngenta Crop Protection comprising azoxystrobin. Such donor solutions comprised 343.5 ppm azoxystrobin.
(§5) The permeation period was 24 hours.

[6] = tested on: waxy cuticles of whole soybean leaves; assay: Franz cell leaf penetration of trans-2-Hexenoic acid, Biosoft adjuvants (Example 2); conditions: penetration ratio of trans-2-Hexenoic acid (1,500 ppm), azoxystrobin 343.5 ppm (Quadris) and adjuvant 1,000 ppm where included, 24 hours
From the text: as §1
Each donor solution comprised 1,500 ppm trans-2-Hexenoic acid. Certain donor solutions included a strobilurin fungicide, namely azoxystrobin. Such donor solutions comprised Quadris®, a commercially available fungicide from Syngenta Crop Protection comprising azoxystrobin. Such donor solutions comprised 343.5 ppm azoxystrobin. […] In this example, the adjuvants tested were non-ionic surfactants comprising C11 linear alcohol ethoxylates (available from Stepan Company of Northfield, IL as Biosoft® N1-5, Biosoft® N1-7, and Biosoft® N1-9).
as §5

[7] = tested on: waxy cuticles of whole wheat leaves; assay: Franz cell leaf penetration of 5-Hexenoic acid (Example 4); conditions: penetration ratio of 5-Hexenoic acid (1,000 ppm), pyraclostrobin 236 ppm (Headline EC) and adjuvant 1,000 ppm where included, 24 hours
Experimental: as §1
Several donor solutions were prepared to assess penetration of 5-Hexenoic acid across waxy cuticles of whole wheat leaves. Each donor solution comprised 1,000 ppm 5-Hexenoic acid (except where otherwise noted). Certain donor solutions included a strobilurin fungicide, namely pyraclostrobin. Such donor solutions comprised Headline® EC, a commercially available fungicide from BASF Corporation comprising pyraclostrobin. Such donor solutions comprised 236 ppm pyraclostrobin. […] In this example, the adjuvants tested were non-ionic surfactants comprising C11 linear alcohol ethoxylates (available from Stepan Company of Northfield, IL as Biosoft® N1-5, Biosoft® N1-7, and Biosoft® N1-9).
as §2

[8] = tested on: waxy cuticles of whole wheat leaves; assay: Franz cell leaf penetration of 3-Nonenoic acid (Example 5); conditions: penetration ratio of 3-Nonenoic acid (500 ppm), epoxiconazole TGAI 50 ppm and adjuvant 1,000 ppm where included, 24 hours
Experimental: as §1
as §4, with “3-Nonenoic” for “3-Octenoic”, “N1-5, Biosoft® N1-7,” for “N1-5”, “Biosoft® N1-9).” for “Biosoft®) N1-7).”
as §2

[9] = tested on: waxy cuticles of whole soybean leaves; assay: Franz cell leaf penetration of azoxystrobin, Mero (Example 14); conditions: penetration ratio of azoxystrobin (343.5 ppm, Quadris), trans-2-Hexenoic acid 1,500 ppm and Mero 31.3 ppm where included, 24 hours
Experimental: as §1
Several donor solutions were prepared to assess penetration of a strobilurin fungicide, namely azoxystrobin, across waxy cuticles of whole soybean leaves. Each donor solution comprised Quadris®, a commercially available fungicide from Syngenta Crop Protection comprising azoxystrobin. Such donor solutions comprised 343.5 ppm azoxystrobin. Certain donor solutions included 1,500 ppm trans-2-Hexenoic acid.
as §5

With Fc1ccc([C@]2(Cn3cncn3)O[C@H]2c2ccccc2Cl)cc1 (racemic) [Epoxiconazole, epoxiconazole] the “Pesticidal Active Ingredient Penetration” value [1] was 18.2%.

In the case of COC(=O)N(OC)c1ccccc1COc1ccn(-c2ccc(Cl)cc2)n1 [Pyraclostrobin, pyraclostrobin], the “Pesticidal Active Ingredient Penetration” value [2] is reported as 7.1% and the “Pesticidal Active Ingredient Penetration” value [3] is reported as 7.5%.

In the case of CCCCC=CCC(=O)O [3-octenoic acid, 3-Octenoic acid], the “Aliphatic Acid Penetration” value [4] is reported as 13.4%.

In the case of CCC/C=C/C(=O)O [trans-2-hexenoic acid, trans-2-Hexenoic acid], the “Aliphatic Acid Penetration” value [5] is reported as 13.2% and the “Aliphatic Acid Penetration” value [6] is reported as 13.2%.

In the case of C=CCCCC(=O)O [5-Hexenoic acid], the “Aliphatic Acid Penetration” value [7] is reported as 6.8%.

For CCCCCC=CCC(=O)O [3-Nonenoic acid], the “Aliphatic Acid Penetration” value [8] was 17.6%.

In the case of CO/C=C(/C(=O)OC)c1ccccc1Oc1cc(Oc2ccccc2C#N)ncn1 [Azoxystrobin, azoxystrobin], the “Pesticidal Active Ingredient Penetration” value [9] is reported as 0.7%.
